Some test systems named below: RPMI-8226 leukemia; SNB-75 CNS; A498 renal; U251 CNS; NCI-H522 lung; MDA-MB-231 breast; SK-MEL-28 melanoma; UO-31 renal; UACC-62 melanoma; SW-620 colon.
What all share (assay): NCI tumour cell line growth inhibition, 48 h

“And” between values parts separate entries of the source, which are not always exact repeats. Equal values may be shown once.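 Protocol summary: plate cells (96-well), add compound at 5 concentrations, incubate 48 h, interpolate endpoints linearly. Here, GI50 denotes the concentration required for 50% inhibition of growth. TGI: total growth inhibition.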

On to `COc1cccc2c1C(=O)c1c(O)c3c(c(O)c1C2=O)C[C@@](O)(C(=O)CO)CC3OC1CC(N)C(OC2CCCCO2)C(C)O1` (some centres not stated), for which the GI50 with RPMI-8226 leukemia was 0.00394 µM; in the assay on SNB-75 CNS, 0.0171 µM; in the assay with U251 CNS it was 0.00812 µM; in the assay with NCI-H522 lung, 0.0409 µM; with SK-MEL-28 melanoma it was 0.113 µM; in the assay with UACC-62 melanoma, 0.0205 µM. Also, the GI50 with SW-620 colon is 0.113 µM. Also, the TGI with A498 renal was 1.16 µM; in the assay with NCI-H522 lung, 0.282 µM and 1.72 µM; in the assay on MDA-MB-231 breast, 0.273 µM; in the assay with UO-31 renal, 5.46 µM; in the assay on SW-620 colon it was 1.03 µM and 7.04 µM.
`C#C[C@@]1(O)[C@@H](CO)O[C@@H](n2cc(Br)c3c(Cl)ccnc32)[C@@H]1O`: the GI50 is 1.73 µM in the assay on RPMI-8226 leukemia; 0.657 µM with SNB-75 CNS; 0.303 µM in the assay with A498 renal; 40 µM in the assay with U251 CNS; 3.64 µM in the assay on NCI-H522 lung; 0.289 µM with MDA-MB-231 breast. The GI50 in the assay on SK-MEL-28 melanoma is above 100 µM; in the assay with UO-31 renal it was 2.16 µM; in the assay with UACC-62 melanoma, 15.6 µM; with SW-620 colon, 0.552 µM. Moreover, the TGI with RPMI-8226 leukemia is 5.97 µM; in the assay with SNB-75 CNS, above 39.2 µM; with A498 renal, 2.55 µM; in the assay on U251 CNS, above 100 µM; in the assay on NCI-H522 lung it was above 100 µM; in the assay with MDA-MB-231 breast, 1.94 µM. For the same molecule, the TGI with SK-MEL-28 melanoma, with UO-31 renal, with UACC-62 melanoma and in the assay with SW-620 colon was above 100 µM throughout.
For `O=C(Nc1nc(-c2ccc(Cl)cc2)cs1)c1cc(O)c(O)c(O)c1`, the GI50 is 197 µM with RPMI-8226 leukemia; 162 µM in the assay on SNB-75 CNS; 927 µM in the assay on A498 renal; 156 µM with U251 CNS; 21.4 µM in the assay with NCI-H522 lung; 141 µM in the assay on MDA-MB-231 breast. The GI50 in the assay with SK-MEL-28 melanoma was 303 µM; in the assay with UO-31 renal, 50.6 µM; in the assay with UACC-62 melanoma, 158 µM; in the assay on SW-620 colon it was 168 µM. Further, the TGI in the assay with RPMI-8226 leukemia was determined as 1680 µM; in the assay on SNB-75 CNS, 3990 µM; with A498 renal it was 3480 µM; in the assay on U251 CNS, 1200 µM; with NCI-H522 lung, 138 µM; with MDA-MB-231 breast it was 3150 µM. Moreover, the TGI is above 5000 µM in the assay with SK-MEL-28 melanoma, 569 µM in the assay with UO-31 renal, 958 µM in the assay with UACC-62 melanoma and above 5000 µM in the assay on SW-620 colon.
In the case of `COc1cccc2c1C(=O)c1c(O)c3c(c(O)c1C2=O)C[C@@](O)(/C(CO)=N/NC(=O)CCCCCN1C(=O)C=CC1=O)C[C@@H]3O[C@H]1C[C@H](N)[C@H](O)[C@H](C)O1`, the GI50 in the assay on RPMI-8226 leukemia was 0.32 µM; in the assay with SNB-75 CNS, 0.368 µM; in the assay with A498 renal, 0.361 µM; with U251 CNS it was 0.325 µM; in the assay on NCI-H522 lung, 0.56 µM; in the assay on MDA-MB-231 breast it was 1.96 µM. The GI50 with SK-MEL-28 melanoma is 1.61 µM; in the assay with UO-31 renal, 3.47 µM; in the assay with UACC-62 melanoma, 0.621 µM; in the assay on SW-620 colon, 0.357 µM. Further, the TGI was above 28.2 µM in the assay with RPMI-8226 leukemia; 2.99 µM in the assay with SNB-75 CNS; 2.15 µM in the assay on A498 renal; 15.8 µM in the assay with U251 CNS; 4.21 µM in the assay with NCI-H522 lung; 44 µM in the assay with MDA-MB-231 breast. Besides, the TGI in the assay with SK-MEL-28 melanoma was 5.67 µM; in the assay with UO-31 renal, 27.9 µM; in the assay on UACC-62 melanoma it was 3 µM; in the assay on SW-620 colon it was above 49 µM.
As to `Cc1ccc(C[As+](c2ccccc2)(c2ccccc2)c2ccccc2)cc1`, the GI50 in the assay with RPMI-8226 leukemia was 0.218 µM; in the assay with SNB-75 CNS, 1.1 µM; in the assay with A498 renal, 0.581 µM; in the assay with U251 CNS, 0.58 µM; with NCI-H522 lung, 0.649 µM; in the assay with MDA-MB-231 breast, 1.46 µM. The GI50 in the assay on SK-MEL-28 melanoma was 0.927 µM; in the assay on UO-31 renal, 12.4 µM; in the assay with UACC-62 melanoma, 0.371 µM; in the assay on SW-620 colon, 0.99 µM. Further, the TGI in the assay on RPMI-8226 leukemia was found to be 3.24 µM; in the assay on SNB-75 CNS, 10.3 µM; with A498 renal, 5.07 µM; in the assay on U251 CNS, 15.9 µM; with NCI-H522 lung, 8.38 µM; in the assay on MDA-MB-231 breast it was 19.6 µM. Moreover, the TGI was 18.5 µM in the assay on SK-MEL-28 melanoma, 97.4 µM in the assay on UO-31 renal, 12.6 µM in the assay on UACC-62 melanoma and above 38.1 µM in the assay with SW-620 colon.
For `Cc1cc(O)ccc1C1=NN(c2ccc(S(N)(=O)=O)cc2)C(=O)CC1`, the GI50 in the assay with RPMI-8226 leukemia was 2.35 µM and 2.76 µM; in the assay with SNB-75 CNS, 2.95 µM and 16.3 µM; in the assay on A498 renal, 9.08 µM and 77.2 µM; with U251 CNS, 6.97 µM and 16.1 µM; in the assay with NCI-H522 lung, 1.12 µM and 2.48 µM; with MDA-MB-231 breast it was 10.9 µM and 21.8 µM. In addition, the GI50 with SK-MEL-28 melanoma was 25.7 µM and > 100 µM; in the assay on UO-31 renal, 18.1 µM and 35.1 µM; with UACC-62 melanoma it was 2.74 µM and 3.68 µM; with SW-620 colon it was 2.34 µM and 8.64 µM. Further, the TGI with RPMI-8226 leukemia was 50 µM and 23.6 µM; in the assay on SNB-75 CNS, 21.5 µM and 82.9 µM; in the assay with A498 renal, 50 µM and > 100 µM; in the assay on U251 CNS, 50 µM and 67 µM; with NCI-H522 lung, 33.5 µM and > 100 µM; with MDA-MB-231 breast, 50 µM and > 100 µM. For the same molecule, the TGI was 50 µM and > 100 µM in the assay with SK-MEL-28 melanoma; 50 µM and > 100 µM in the assay on UO-31 renal; 50 µM and > 100 µM in the assay on UACC-62 melanoma; 50 µM and > 100 µM with SW-620 colon.
Regarding `C[C@]12CC[C@H](O[C@@H]3O[C@H](CO[C@@H]4O[C@H](CO)[C@@H](O)[C@H](O)[C@H]4O)[C@@H](O)[C@H](O)[C@H]3O)C[C@@H]1CC[C@@H]1[C@@H]2CC[C@]2(C)[C@@H](C3=CC(=O)OC3)CC[C@]12O`, the TGI was above 87.9 µM in the assay with RPMI-8226 leukemia; above 84.7 µM in the assay with SNB-75 CNS; 70 µM in the assay on A498 renal; above 100 µM with U251 CNS; 46.7 µM in the assay with NCI-H522 lung; above 100 µM in the assay on MDA-MB-231 breast. Besides, the TGI is above 100 µM in the assay on SK-MEL-28 melanoma, above 66.5 µM in the assay on UO-31 renal, above 80.4 µM with UACC-62 melanoma and above 100 µM in the assay on SW-620 colon.
As for `O=C1C=C(NCCO)c2nccc3c2c1nc1ccccc13`, the GI50 in the assay with RPMI-8226 leukemia is 24.7 µM; in the assay with SNB-75 CNS, 49.7 µM; in the assay on A498 renal, 38.2 µM; in the assay with U251 CNS it was 23.4 µM; with NCI-H522 lung it was 22.5 µM; with MDA-MB-231 breast, 24.5 µM. Also, the GI50 with SK-MEL-28 melanoma is 41.4 µM; in the assay with UO-31 renal, 24.6 µM; in the assay on UACC-62 melanoma, 13.4 µM; in the assay with SW-620 colon, 15.5 µM. Besides, the TGI in the assay with RPMI-8226 leukemia is above 100 µM; in the assay with SNB-75 CNS, above 100 µM; in the assay on A498 renal, above 100 µM; with U251 CNS it was above 100 µM; in the assay with NCI-H522 lung it was 85 µM; with MDA-MB-231 breast, above 100 µM. Moreover, the TGI in the assay on SK-MEL-28 melanoma was above 100 µM; with UO-31 renal, above 100 µM; with UACC-62 melanoma, 31 µM; with SW-620 colon, above 100 µM.
On to `Cn1ncc(C#N)c1-c1ccc2c(c1)CN([C@H](CN)Cc1cccc(F)c1)C2=O`, for which the GI50 with RPMI-8226 leukemia was 2.34 µM; with SNB-75 CNS it was 0.0925 µM; in the assay with A498 renal it was 0.157 µM; in the assay with U251 CNS, 0.693 µM; with NCI-H522 lung, 17.6 µM; in the assay on MDA-MB-231 breast it was 20.9 µM. The GI50 in the assay with SK-MEL-28 melanoma is 3.72 µM; in the assay on UO-31 renal it was 3.43 µM; in the assay with UACC-62 melanoma, 3.17 µM; with SW-620 colon, 23.3 µM. Besides, the TGI with RPMI-8226 leukemia was 18.3 µM; in the assay on SNB-75 CNS it was 3.09 µM; with A498 renal, 1.39 µM; with U251 CNS it was above 86.4 µM; in the assay on NCI-H522 lung, 60.3 µM; with MDA-MB-231 breast, above 100 µM. The TGI was above 83.2 µM in the assay with SK-MEL-28 melanoma, 42.5 µM in the assay on UO-31 renal, 22.6 µM with UACC-62 melanoma and above 100 µM in the assay on SW-620 colon.
Consider `CCc1nc(C)cn1C(=O)OCc1nc2nc(Cl)nc(N3CCOCC3)c2[nH]1`, for which the GI50 in the assay with RPMI-8226 leukemia was 0.696 µM; in the assay with SNB-75 CNS, 0.579 µM; in the assay with A498 renal, 1.92 µM; in the assay on U251 CNS, 1.63 µM; with NCI-H522 lung, 1.37 µM; in the assay on MDA-MB-231 breast, 1.39 µM. The GI50 in the assay on SK-MEL-28 melanoma was 1.78 µM; in the assay on UO-31 renal, 1.01 µM; in the assay on UACC-62 melanoma, 1.44 µM; with SW-620 colon, 1.11 µM. Besides, the TGI was 3.1 µM in the assay with RPMI-8226 leukemia; 2.06 µM in the assay with SNB-75 CNS; 3.54 µM with A498 renal; 3.42 µM in the assay on U251 CNS; 3.37 µM in the assay with NCI-H522 lung; 2.83 µM in the assay on MDA-MB-231 breast. Also, the TGI in the assay with SK-MEL-28 melanoma stood at 3.2 µM; in the assay with UO-31 renal it was 2.18 µM; with UACC-62 melanoma it was 2.75 µM; with SW-620 colon, 2.69 µM.
Consider `O=S(=O)(NC1=NCCN1C(=S)SN1CCn2c1nsc2=S)c1ccc(Oc2ccccc2)cc1`, for which the GI50 was 30.2 µM with RPMI-8226 leukemia; 39.5 µM in the assay on SNB-75 CNS; 34.2 µM with A498 renal; above 100 µM in the assay with U251 CNS; 26.2 µM with NCI-H522 lung; 37.8 µM in the assay on MDA-MB-231 breast. Moreover, the GI50 in the assay on SK-MEL-28 melanoma was above 100 µM; in the assay with UO-31 renal, above 100 µM; in the assay on UACC-62 melanoma it was 39.3 µM; in the assay with SW-620 colon it was 67 µM. In addition, the TGI was above 100 µM with RPMI-8226 leukemia; above 100 µM in the assay on SNB-75 CNS; 97 µM in the assay on A498 renal; above 100 µM in the assay on U251 CNS; 69 µM with NCI-H522 lung; above 100 µM in the assay on MDA-MB-231 breast. The TGI with SK-MEL-28 melanoma, in the assay on UO-31 renal, with UACC-62 melanoma and in the assay with SW-620 colon was above 100 µM in each case.

The values above are taken from PubChem BioAssay (NCI).
